Assay results published in patent US9957254B2, “Cyclohexen-1-yl-pyridin-2-yl-1h-pyrazole-4-carboxylic acid derivatives and the use thereof as soluble guanylate cyclase activators” (Novartis AG, priority 2014, dated 2018).

The compounds below were run against T1, soluble guanylate cyclase (Homo sapiens, UniProt Q02153) (assay: CHO cellular assay (cGMP production, Cisbio cGMP HTRF)). Details: CHO K1 cells overexpressing human GUCYA3/GUCYB3 (clone 8E10), 1 mM IBMX, 20 uM ODQ, 1 h room temperature, listed 0.5 nM means actual EC50 ≤0.5 nM (quantification limit).
T1 construct: expressed in transfected cells
Format: cell-based
Excerpt: Chinese hamster ovary (CHO) cells overexpressing soluble guanylate cyclase were generated to test the effect of sGC activators in a cellular context. Human cDNAs for GUCYA3 (RefSeq: NM_000856.3) and GUCYB3 (RefSeq: NM_000857.1) were amplified by PCR from a HUVEC (Human Umbilical Vein Endothelial Cells) cDNA library and cloned into mammalian expression vectors. CHO K1 cells (ATCC CCL-61) were transfected using Lipofectamine 2000 following manufacturer's instructions and stably expressing clones were identified by antibiotic selection. CHO GUCY clone 8E10 was used for subsequent experiments.
Cells were seeded at a density of 3000 cells/well in white 384-well proxyplates (Perkin Elmer) and incubated overnight, then the medium was removed and cells were washed with assay buffer (HBSS, 0.1% BSA, 1 mM IBMX, 20 uM ODQ). sGC activators were serially diluted in DMSO, then diluted in assay buffer prior to adding to cells (10 ul/well, final DMSO concentration 0.5%). Cells were incubated with compounds for 1 h room temperature, then assayed for cGMP production using Cisbio cGMP HTRF kit (62GM2PEC) according to manufacturer's instructions.
The EC50s are calculated based on the amount of cGMP interpolated from the standard curve, using a 4-parameter sigmoidal dose-response.
Compounds of invention are active on sGC activation. Data on Table 1 collected using the assay of Biological Example 1. The minimum EC50 quantification limit of the assay is 0.5 nM, therefore any compound listed as having an EC50 value of 0.5 nM has a actual EC50 of ≤0.5 nM.

T1 sequence (Q02108 whole entry partner): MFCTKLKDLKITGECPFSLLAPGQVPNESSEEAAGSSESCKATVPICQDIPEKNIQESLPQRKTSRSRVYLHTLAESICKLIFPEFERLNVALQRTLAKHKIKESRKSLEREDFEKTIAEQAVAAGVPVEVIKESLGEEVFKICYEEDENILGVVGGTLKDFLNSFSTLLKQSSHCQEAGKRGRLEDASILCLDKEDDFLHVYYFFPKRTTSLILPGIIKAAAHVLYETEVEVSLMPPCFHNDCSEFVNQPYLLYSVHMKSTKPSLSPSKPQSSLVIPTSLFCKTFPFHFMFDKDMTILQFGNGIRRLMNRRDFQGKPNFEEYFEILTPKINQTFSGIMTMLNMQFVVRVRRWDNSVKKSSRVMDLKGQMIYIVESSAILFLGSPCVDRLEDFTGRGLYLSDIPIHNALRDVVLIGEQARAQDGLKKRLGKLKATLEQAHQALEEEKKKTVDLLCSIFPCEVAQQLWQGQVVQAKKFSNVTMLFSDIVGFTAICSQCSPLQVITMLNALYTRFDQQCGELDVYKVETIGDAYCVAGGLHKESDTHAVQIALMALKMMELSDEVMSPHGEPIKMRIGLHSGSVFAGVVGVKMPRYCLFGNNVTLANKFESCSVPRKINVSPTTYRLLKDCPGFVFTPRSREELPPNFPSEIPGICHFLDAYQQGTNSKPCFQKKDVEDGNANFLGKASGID
T1 sequence (Q02153 whole entry): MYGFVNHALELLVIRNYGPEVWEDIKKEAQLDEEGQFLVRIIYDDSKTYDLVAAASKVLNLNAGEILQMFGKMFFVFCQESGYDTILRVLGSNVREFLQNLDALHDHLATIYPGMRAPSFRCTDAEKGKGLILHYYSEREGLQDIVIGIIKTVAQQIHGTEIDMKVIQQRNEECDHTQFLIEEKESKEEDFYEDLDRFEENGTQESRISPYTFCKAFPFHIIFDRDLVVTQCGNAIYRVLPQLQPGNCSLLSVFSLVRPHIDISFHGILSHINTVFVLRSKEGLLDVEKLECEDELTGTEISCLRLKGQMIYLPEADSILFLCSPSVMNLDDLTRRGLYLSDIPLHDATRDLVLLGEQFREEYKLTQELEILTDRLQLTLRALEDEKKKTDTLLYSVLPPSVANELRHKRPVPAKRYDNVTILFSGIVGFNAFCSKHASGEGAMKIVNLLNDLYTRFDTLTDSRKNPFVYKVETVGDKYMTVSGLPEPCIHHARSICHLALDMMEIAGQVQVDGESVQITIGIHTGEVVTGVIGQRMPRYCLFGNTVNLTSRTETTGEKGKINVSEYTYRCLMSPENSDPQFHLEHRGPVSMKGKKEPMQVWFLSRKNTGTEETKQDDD

SMILES	EC50
Cc1cc(C2CCN(C(=O)C3CC3)CC2)ccc1OCC1=C(c2cccc(-n3ncc(C(=O)O)c3C(F)(F)F)c2)CC(C)CC1 (racemic) [Example 28, (±)-1-(6′-((4-(1-(Cyclopropanecarbonyl)piperidin-4-yl)-2-methylphenoxy)methyl)-3′-methyl-2′,3′,4′,5′-tetrahydro-[1,1-biphenyl]-3-yl)-5-(trifluoromethyl)-1H-pyrazole-4-carboxylic acid]	22 nM
CC1CCCC(c2cccc(-n3ncc(C(=O)O)c3C(F)(F)F)n2)=C1COc1ccc2c(c1)CCN(Cc1ccccn1)C2 (racemic) [Example 29-1, (±)-1-(6-(3-Methyl-2-(((2-(pyridin-2-ylmethyl)-1,2,3,4-tetrahydroisoquinolin-6-yl)oxy)methyl)cyclohex-1-en-1-yl)pyridin-2-yl)-5-(trifluoromethyl)-1H-pyrazole-4-carboxylic acid]	3.9 nM
O=C(O)c1cnn(-c2cccc(C3=C(COc4ccc([C@H]5CCN(C(=O)C6CC6)C[C@@H]5O)cc4)CCCC3)n2)c1C(F)(F)F (racemic) [Example 29-2, (±)-1-(6-(2-((4-((3,4-trans)-1-(cyclopropanecarbonyl)-3-hydroxypiperidin-4-yl)phenoxy)methyl)cyclohex-1-en-1-yl)pyridin-2-yl)-5-(trifluoromethyl)-1H-pyrazole-4-carboxylic acid]	420 nM
Cc1cc(C2CCN(C(=O)C3CC3)CC2)ccc1OCC1=C(c2cccc(-n3ncc(C(=O)O)c3C(F)(F)F)n2)CC(C)CC1 (single isomer, unassigned; (+)) [Example 12 (+), (+)-1-(6-(2-((4-(1-(cyclopropanecarbonyl)piperidin-4-yl)-2-methylphenoxy)methyl)-5-methylcyclohex-1-en-1-yl)pyridin-2-yl)-5-(trifluoromethyl)-1H-pyrazole-4-carboxylic acid]	≤ 0.5 nM
CCc1cc(OCC2=C(c3cccc(-n4ncc(C(=O)O)c4C(F)(F)F)n3)CCCC2C)ccc1C1CCN(C(=O)C2CC2)CC1 (single isomer, unassigned; (+)) [Example 13a, (+)-1-(6-(2-((4-(1-(Cyclopropanecarbonyl)piperidin-4-yl)-3-ethylphenoxy)methyl)-3-methylcyclohex-1-en-1-yl)pyridin-2-yl)-5-(trifluoromethyl)-1H-pyrazole-4-carboxylic acid]	1 nM
Cc1cc(C2CCN(C(=O)C3CC3)CC2)ccc1OCC1=C(c2cccc(-n3ncc(C(=O)O)c3C(F)(F)F)n2)CCCC1C (single isomer, unassigned; (+)) [Example 15a, (+)-1-(6-(2-((4-(1-(cyclopropanecarbonyl)piperidin-4-yl)-2-methylphenoxy)methyl)-3-methylcyclohex-1-en-1-yl)pyridin-2-yl)-5-(trifluoromethyl)-1H-pyrazole-4-carboxylic acid]	≤ 0.5 nM
CCc1cc(OCC2=C(c3cccc(-n4ncc(C(=O)O)c4C)n3)CCCC2C)ccc1C1CCN(C(=O)C2CC2)CC1 (single isomer, unassigned; (+)) [Example 16a, (+)-1-(6-(2-((4-(1-(Cyclopropanecarbonyl)piperidin-4-yl)-3-ethylphenoxy)methyl)-3-methylcyclohex-1-en-1-yl)pyridin-2-yl)-5-methyl-1H-pyrazole-4-carboxylic acid]	≤ 0.5 nM
CCc1cc(OCC2=C(c3cccc(-n4ncc(C(=O)O)c4CC)n3)CCCC2C)ccc1C1CCN(C(=O)C2CC2)CC1 (single isomer, unassigned; (+)) [Example 17a, (+)-1-(6-(2-((4-(1-(Cyclopropanecarbonyl)piperidin-4-yl)-3-ethylphenoxy)methyl)-3-methylcyclohex-1-en-1-yl)pyridin-2-yl)-5-ethyl-1H-pyrazole-4-carboxylic acid]	≤ 0.5 nM
CCc1cc(OCC2=C(c3cccc(-n4ncc(C(=O)O)c4C(F)F)n3)CCCC2C)ccc1C1CCN(C(=O)C2CC2)CC1 (single isomer, unassigned; (+)) [Example 20(b) (+), (+)-1-(6-(2-((4-(1-(cyclopropanecarbonyl)piperidin-4-yl)-3-ethylphenoxy)methyl)-3-methylcyclohex-1-en-1-yl)pyridin-2-yl)-5-(difluoromethyl)-1H-pyrazole-4-carboxylic acid]	≤ 0.5 nM
CCc1cc(OCC2=C(c3cccc(-n4ncc(C(=O)O)c4C(F)(F)F)n3)CCC2C)ccc1C1CCN(C(=O)C2CC2)CC1 (single isomer, unassigned; (+)) [Example 22(b) (+), (+)-1-(6-(2-((4-(1-(cyclopropanecarbonyl)piperidin-4-yl)-3-ethylphenoxy)methyl)-3-methylcyclopent-1-en-1-yl)pyridin-2-yl)-5-(trifluoromethyl)-1H-pyrazole-4-carboxylic acid]	1 nM
Cc1cc(C2CCN(C(=O)C3CC3)CC2)ccc1OCC1=C(c2cccc(-n3ncc(C(=O)O)c3C(F)(F)F)n2)CC(C)CC1 (single isomer, unassigned; (-)) [Example 12 (−), (−)-1-(6-(2-((4-(1-(cyclopropanecarbonyl)piperidin-4-yl)-2-methylphenoxy)methyl)-5-methylcyclohex-1-en-1-yl)pyridin-2-yl)-5-(trifluoromethyl)-1H-pyrazole-4-carboxylic acid]	≤ 0.5 nM
CCc1cc(OCC2=C(c3cccc(-n4ncc(C(=O)O)c4C(F)(F)F)n3)CCCC2C)ccc1C1CCN(C(=O)C2CC2)CC1 (single isomer, unassigned; (-)) [Example 13b, (−)-1-(6-(2-((4-(1-(Cyclopropanecarbonyl)piperidin-4-yl)-3-ethylphenoxy)methyl)-3-methylcyclohex-1-en-1-yl)pyridin-2-yl)-5-(trifluoromethyl)-1H-pyrazole-4-carboxylic acid]	9 nM
Cc1cc(C2CCN(C(=O)C3CC3)CC2)ccc1OCC1=C(c2cccc(-n3ncc(C(=O)O)c3C(F)(F)F)n2)CCCC1C (single isomer, unassigned; (-)) [Example 15b, (−)-1-(6-(2-((4-(1-(Cyclopropanecarbonyl)piperidin-4-yl)-2-methylphenoxy)methyl)-3-methylcyclohex-1-en-1-yl)pyridin-2-yl)-5-(trifluoromethyl)-1H-pyrazole-4-carboxylic acid]	1 nM
CCc1cc(OCC2=C(c3cccc(-n4ncc(C(=O)O)c4C)n3)CCCC2C)ccc1C1CCN(C(=O)C2CC2)CC1 (single isomer, unassigned; (-)) [Example 16b, (−)-1-(6-(2-((4-(1-(Cyclopropanecarbonyl)piperidin-4-yl)-3-ethylphenoxy)methyl)-3-methylcyclohex-1-en-1-yl)pyridin-2-yl)-5-methyl-1H-pyrazole-4-carboxylic acid]	3 nM
CCc1cc(OCC2=C(c3cccc(-n4ncc(C(=O)O)c4CC)n3)CCCC2C)ccc1C1CCN(C(=O)C2CC2)CC1 (single isomer, unassigned; (-)) [Example 17b, (−)-1-(6-(2-((4-(1-(Cyclopropanecarbonyl)piperidin-4-yl)-3-ethylphenoxy)methyl)-3-methylcyclohex-1-en-1-yl)pyridin-2-yl)-5-ethyl-1H-pyrazole-4-carboxylic acid]	1.4 nM
CCc1cc(OCC2=C(c3cccc(-n4ncc(C(=O)O)c4C(F)F)n3)CCCC2C)ccc1C1CCN(C(=O)C2CC2)CC1 (single isomer, unassigned; (-)) [Example 20b (−), (−)-1-(6-(2-((4-(1-(cyclopropanecarbonyl)piperidin-4-yl)-3-ethylphenoxy)methyl)-3-methylcyclohex-1-en-1-yl)pyridin-2-yl)-5-(difluoromethyl)-1H-pyrazole-4-carboxylic acid]	2 nM
CCc1cc(OCC2=C(c3cccc(-n4ncc(C(=O)O)c4C(F)(F)F)n3)CCC2C)ccc1C1CCN(C(=O)C2CC2)CC1 (single isomer, unassigned; (-)) [Example 22(b) (−), (−)-1-(6-(2-((4-(1-(cyclopropanecarbonyl)piperidin-4-yl)-3-ethylphenoxy)methyl)-3-methylcyclopent-1-en-1-yl)pyridin-2-yl)-5-(trifluoromethyl)-1H-pyrazole-4-carboxylic acid]	5.5 nM
CCc1cc(OCC2=C(c3cccc(-n4ncc(C(=O)O)c4CC)n3)CCCC2C)ccc1C1CCN(C(=O)[C@H](C)O)CC1 (single isomer, unassigned; diastereomer-1) [Example 18a]	≤ 0.5 nM
CCc1cc(OCC2=C(c3cccc(-n4ncc(C(=O)O)c4C)n3)CCCC2C)ccc1C1CCN(C(=O)[C@H](C)O)CC1 (single isomer, unassigned; diastereomer-1) [Example 19a]	≤ 0.5 nM
CCc1cc(OCC2=C(c3cccc(-n4ncc(C(=O)O)c4CC)n3)CCCC2C)ccc1C1CCN(C(=O)[C@H](C)O)CC1 (single isomer, unassigned; diastereomer-2) [Example 18b]	8.9 nM
CCc1cc(OCC2=C(c3cccc(-n4ncc(C(=O)O)c4C)n3)CCCC2C)ccc1C1CCN(C(=O)[C@H](C)O)CC1 (single isomer, unassigned; diastereomer-2) [Example 19b]	8 nM
